Calls of active or inactive are those of the source.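 How the source made its calls: active means compounds giving half or more protection of infected cells from virus-caused growth loss, again on retest; inactive means the rest.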
Tested on: CEM cells HIV-1 protection, formazan growth assay
Test: NCI AIDS Antiviral Assay
Conditions: for IC50: measured here: growth of uninfected CEM cells
How it was run: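 CEM (human) cells, HIV-1 infected vs uninfected, 5-point dosing, formazan growth read-out. Retest threshold 50% protection.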

Row | Compound | outcome | EC50 | IC50
1 | c1cncc(CN2CCCCCC2)c1 | inactive |  | 
2 | N#CCCN(CCC#N)c1ccc(/C=C2\N=C(c3ccccc3)N(c3ccc(Cl)cc3)C2=O)cc1 |  | > 200 µM | > 200 µM
3 | Cc1nc(C(N)=S)sc1/C(CC(=O)C(=O)Nc1cccc2ccc(O)cc12)=N\NC(=O)c1ccncc1 |  | > 35.5 µM | > 35.5 µM
4 | C[n+]1c(-c2ccc(/C=N/NC(=S)N/N=C/c3ccc(-c4cn5ccccc5[n+]4C)cc3)cc2)cn2ccccc21 |  | > 39.8 µM | 21.9 µM
5 | CCCC/S(C)=N/S(=O)(=O)c1ccc(C)cc1 (stereo unspecified) |  | > 200 µM | > 200 µM
6 | CC1(C)S(=O)(=O)OCCOS1(=O)=O |  | > 200 µM | 110 µM
7 | O=C1c2ccccc2C(=O)c2c(Nc3cccc4c3C(=O)c3ccccc3C4=O)cccc21 |  | > 200 µM | > 200 µM
8 | COc1cc2c(c3c1[C@H](O)[C@H](C)[C@@H](C)O3)C=CC(C)(C)O2 |  | > 200 µM | 81.3 µM
9 | COc1ccc(/C=C2\S/C(=N/Nc3nc(-c4ccccc4)cs3)NC2=O)cc1OC |  | > 200 µM | 31.6 µM
10 | [O]=[Sb]([OH])([OH])[c]1ccc(O)cc1 |  | > 200 µM | 33.9 µM
11 | COc1ccc(C[C@@H]2CN(C(=O)c3ccccc3)[C@H](Cc3ccc(O)cc3)CN2C(=O)c2ccccc2)cc1Br |  | > 200 µM | 126 µM
12 | CC(C)O/C=C1\CCc2ccccc2C1=O |  | > 200 µM | 36.3 µM
13 | Cc1cc(C(=O)Nc2ccc(NC3=NCCN3)cc2)c(C)cc1C(=O)Nc1ccc(NC2=NCCN2)cc1 |  | > 200 µM | 20.4 µM
14 | CSP(=S)(SC)SC(C)c1ccc(C)cc1 (stereo unspecified) | inactive |  | 
15 | CCCCC1C=Cn2c(=O)oc3c(OC(C)C)c(C)c(O)c1c32 (stereo unspecified) |  | > 200 µM | 2.51 µM
16 | C/C=C(\C)C(=O)c1c(OCC)cc(OCC)c2c(CCC)cc(=O)oc12 |  | > 126 µM | 1.91 µM
17 | COc1ccc(C(O)C(C)C(O)(C(F)(F)F)C(F)(F)F)cc1 (stereo unspecified) |  | > 200 µM | 95.5 µM
18 | CN1CC(=O)N(C)c2nc[nH]c2C1=O | inactive |  | 
19 | CC(C)OCC(O)COc1ccc2ccc(=O)oc2c1 (stereo unspecified) |  | > 200 µM | > 200 µM
20 | Oc1ccc(O)c(-n2cccn2)c1-n1cccn1 |  | > 110 µM | 42.7 µM
21 | CC1=C(C(=O)Nc2ccccc2)C(c2ccc(C3C(C(=O)Nc4ccccc4)=C(C)NC(C)=C3C(=O)Nc3ccccc3)cc2)C(C(=O)Nc2ccccc2)=C(C)N1 |  | > 12.9 µM | 2.4 µM
22 | CCOP(=O)(OCC)C1CC(O)C(=O)N1 (stereo unspecified) |  | > 200 µM | > 200 µM
23 | CCCCCCCCCC(=O)OC1CN2CC[C@H](O)C2C(O)[C@@H]1O (stereo partly specified) | inactive |  | 
24 | CC1CC(=O)c2ccccc2O1 (stereo unspecified) |  | > 200 µM | > 200 µM
25 | N#C/C(=C(/Cc1ccc(F)cc1)NP(=O)(c1ccccc1)c1ccccc1)c1ccc(F)cc1 |  | > 21.4 µM | > 21.4 µM
26 | C(=N\NC1=NCCN1)/c1cccc2cc3ccncc3nc12 |  | > 200 µM | 0.891 µM
27 | Cn1c(=O)[nH]c(N2CCCC2)c(C#N)c1=S |  | > 200 µM | > 200 µM
28 | O=C(c1ccncc1)n1nc(-c2ccccc2)c(N=Nc2ccccc2[N+](=O)[O-])c1-c1ccccc1 |  | > 39.8 µM | > 39.8 µM
29 | O=Nc1ccc(N(CCO)CCO)cc1 |  | > 200 µM | 2.95 µM
30 | COc1cccc(/C=C2\Cc3ccccc3C2=O)c1 |  | > 4.17 µM | > 4.17 µM

From PubChem BioAssay AID179 (DTP/NCI, 2004)
